Source: article PMC11676896, “Protective Action of Cannabidiol on Tiamulin Toxicity in Humans—In Vitro Study” (International Journal of Molecular Sciences, 2024)
“And” between values parts separate entries of the source, which are not always exact repeats. Equal values may be shown once. Where a name gives a salt, the structure may show the parent alone. Read-outs that look alike come from different tables or passages of the source.

How the values were obtained:
[1] = tested on: HEK 293 cells; test: TPC assay (total protein content, proliferation); format: cell-based, human
Description: (§1) The cytotoxic potential of the veterinary drug and its mixtures with cannabidiol at two non-toxic concentrations: 1.56 and 3.15 µg/mL, on the human SH-SY5Y, HepG2 and HEK 293 cell lines was assessed by decreased viability of the cells within five biochemical endpoints: mitochondrial activity and lysosomal activity (MTT assays, reducing the tetrazolium dye MTT 3-(4,5-dimethylthiazol-2-yl)-2,5-diphenyltetrazolium bromide and neutral red uptake (NRU) assays), total protein content (TPC assay), cellular membrane integrity (leakage lactate dehydrogenase (LDH) assay) and DNA synthesis (the bromodeoxyuridine/5-bromo-2′-deoxyuridine incorporation into the DNA cells (BrdU) assay) after 72 h exposition. Data obtained from the measurement of the optical density in these assays were transformed to percentages in relation to the negative control group (0.1% DMSO in medium), considered to be 100% for the MTT, NRU, TPC and BrdU assays and 0% for the LDH assay. 1% Trition-X 100 solution in medium was used as the positive controls, (Figure 3).
(§2) The human neuroblastoma (SH-SY5H), hepatoma (HepG2) and kidney cells (HEK 293) cells were purchased from the American Type Culture Collection: ATCCCRL-2266,ATCC HB-8065 and ATCC CRL-1573, respectively. These cells were cultured in Minimum Essential Medium Eagle (MEME) (ATCC). The media were supplemented with 10% FBS, 1% L-glutamine (and 1% antibiotic solution (P4333 Sigma). The cells were maintained in 75 cm^2 cell culture flasks (NUNC) in a humidified incubator at 37 °C in an atmosphere of 5% CO2. The medium was refreshed every two or three days, and the cells were subcultured by 0.25% trypsin–0.02% EDTA after reaching 70–80% confluence. Single cell suspensions were prepared and adjusted to a density of 2 × 10^5 cell/mL^−1 (SH-SY5H), 1 × 10^5 cell/mL^−1 (HepG2) and 1 × 10^5 cell/mL^−1 (HEK-293). The cell suspension was transferred to 96-well plates (100 µL/well) or Lab-Tek chamber slides (8 wells) (Nunc) for staining and incubated for 24 h before the exposure to the studied compounds. Stock solutions of tiamulin fumarate and cannabidiol were prepared in DMSO and diluted with culture medium to obtain a concentration range from 1.56 to 200 µg/mL and 1.56 or 3.156 µg/mL, respectively. The selection of tiamulin concentrations was based on data from the literature and pilot studies. The final concentration of DMSO was 0.1% in the medium. The same final concentrations of the solvent and the 1% Trition-X 100 solution were used as the negative and positive controls, respectively. A total of 500 µM hydrogen peroxide (H2O2) in was used as the positive control in the DCFH assay. […] As a negative control, cultured cells were grown in the absence of studied compounds. Each concentration was tested in six replicates in three independent experiments. Cytotoxicity was assessed after 72 h of exposure of the cells to the compounds. The medium was not changed during the incubation time.
(§3) This assay is based upon staining the total cellular protein (proliferation). After the incubation, the medium containing the drug was removed, and 100 µL Coomassie brilliant blue R-250 dye was added to each well. The plate was shaken for 10 min. Then, the stain was removed and the cells were rinsed twice with 100 µL of washing solution (glacial acetic acid/ethanol/water, 5:10:85, v:v:v). After that, 100 µL of the desorbing solution (1 M potassium acetate) was added, and plates were shaken again for 10 min. The absorbance was measured at 595 nm in a Synergy 2 Multi-Mode Microplate Reader (BioTek® Instruments Inc., Winooski, VT, USA) using a blank as a reference. Cytotoxicity was expressed as a percentage of the negative control (0.1% DMSO in medium).
(§4) This study was performed in three independent experiments. The obtained results are presented as mean values ± SD (standard deviation). […]

[2] = tested on: HepG2 cells; test: TPC assay (total protein content, proliferation); format: cell-based, human; settings: HepG2, 72 h
Description: as §1, §2, §3, §4

[3] = tested on: SH-SY5Y cells; test: TPC assay (total protein content, proliferation); format: cell-based, human; settings: 72 h
Description: as §1, §2, §3, §4

[4] = tested on: SH-SY5Y cells; test: BrdU assay (DNA synthesis); format: cell-based, human; settings: 72 h
Description: as §1, §2
Cell proliferation was evaluated by BrdU assay using a Cell Proliferation ELISA, BrdU (colorimetric) kit (Roche, Switzerland), according to manufacturer’s instructions. Briefly, BrdU was incorporated in the place of thymidine into the DNA of cells under division. This BrdU was detected by an anti-BrdU antibody conjugated with peroxidase and the reaction product of the enzyme with the given substrate was quantified by measuring its absorbance. The absorbance (A) was measured at 370 nm and 492 nm in a Synergy 2 Multi-Mode Microplate Reader (BioTek® Instruments Inc., Winooski, VT, USA), using a blank as a reference.
This study was performed in three independent experiments. The obtained results are presented as mean values ± SD (standard deviation). The assessment of the cytotoxicity data used a one-way analysis of variance (ANOVA) followed by Dunnett’s post hoc test, which was applied to determine significance relative to the negative control. […]

[5] = tested on: HEK-293 cells; test: Hoechst 33342/propidium iodide double staining (apoptosis and necrosis); format: cell-based; settings: HEK-293, 72 h of incubation
Text: (§5) After assessing the cytotoxicity of tiamulin and its mixtures with CBD, cell death was examined using the Hoechst 33342/propidium iodide (PI) double staining test (Figure 6). The intensity of the blue color and the presence of fragmented, blue-stained cellular components indicated apoptotic cell death after Hoechst 33342 staining. Necrotic cell death was identified by red fluorescence after PI staining. […] Mixtures of tiamulin and CBD caused a decrease in both apoptotic and necrotic cell death.
(§6) The analysis of type and level of cellular death in the control and tested cultures was evaluated using fluorochrome staining, Hoechst 33342 (Sigma, St. Louis, MO, USA) and propidium iodide (Sigma, St. Louis, MO, USA) mixed for apoptosis and necrosis evaluation. Using an Axiaert 200 M fluorescence micrscope (Zeiss, Obercochem, Germany), dead cells were analyzed morphologically. Cells with pink fluorescent nuclei were considered necrotic, whereas those with blue fluorescent nuclei (fragmented and/or with condensed chromatin) were considered apoptotic.

[6] = tested on: HepG2 cells; test: as above; format: cell-based; settings: HepG2, 72 h of incubation
Text: as §5, §6

[7] = tested on: SH-SY5Y cells; test: as above; format: cell-based; settings: 72 h of incubation
Text: as §5, §6

[8] = tested on: HepG2 and HEK-293 cells; design: method as in PMID 39241564, PMID 37709940; settings: 10 h of exposure, cited from earlier work
[9] = tested on: primary porcine hepatocytes; design: method as in PMID 10682383; settings: 250 µM (123.5 µg/mL), 24 h of exposure; cited from earlier work
[10] = Homo sapiens, read-out: inhibited concentration (IC50), TPC

## C=C[C@]1(C)C[C@@H](OC(=O)CSCCN(CC)CC)[C@]2(C)[C@H](C)CC[C@]3(CCC(=O)[C@H]32)[C@@H](C)[C@@H]1O [T, tiamulin fumarate]
[1]; HEK-293, 72 h
  tiamulin concentration that inhibited proliferation: 12.5 µg/mL
[1]; Homo sapiens, HEK293, 72 h, read-out: inhibited concentration (IC50), TPC
  IC50: 8.5 ± 0.6 mg/L
[2]
  tiamulin concentration that inhibited cell proliferation: 50 µg/mL
[2]; [10]
  IC50: 26.7 ± 1.4 mg/L
[3]
  tiamulin concentration that decreased total protein content / inhibited proliferation: 25 µg/mL
[3]; [10]
  IC50: 169 ± 3.3 mg/L
[4]
  tiamulin concentration that inhibited DNA synthesis: 6.25 µg/mL
[4]; Homo sapiens, read-out: inhibited concentration (IC50), BrdU
  IC50: 9.9 ± 1.1 mg/L
[5]
  apoptotic and necrotic cell death: significant apoptotic and necrotic profiles
[6]
  apoptotic and necrotic cell death: significant apoptotic and necrotic profiles
[7]
  apoptotic and necrotic cell death: slight increase in apoptotic and necrotic cells
[8]; converted from µM
  concentrations with cytotoxic effects: 49.4 µg/mL and 98.8 µg/mL
[8]
  concentrations with cytotoxic effects: 100 µM and 200 µM
[9]
  ROS production in the hepatocyte culture: increased ROS production
